Laboratory results from paper PMC5829242, “Chiral DOTA chelators as an improved platform for biomedical imaging and therapy applications” (Nature Communications, 2018).

Experiments:
[1] = Stability of Yb complexes in 1N DCl by 1H NMR; type: physicochemical
Method: (§4) The stability of CuDOTA and CuL2 was compared by UV-Visible spectra. […] Because the ionic radii of Lu(III) is very close to Yb(III), so we used the Yb(III) as a surrogate to study the stability. […] Additionally, we examined in vitro serum stability of ^64CuL2 at 37 °C.

[2] = In vitro serum stability of 64CuL2; type: in vitro ADME; details: 37 °C
Method: as §4

[3] = Gd complexes biodistribution studies (ICP-MS); type: in vivo, BALB/c mice; details: 0.025 mmol/kg i.v., 5-360 min post injection
Source text: Most commercially available Gd(III)-based MRI contrast agents are excreted rapidly and exclusively through the renal pathway. One of the few exceptions is an acyclic compound, Gd-EOB-DTPA, which has a mixed clearance (50% renal, 50% biliary) and is used for imaging of the liver and biliary system. Gd-BOPTA and MS-325 have predominantly renal elimination with <10% elimination through the biliary system. […] We illustrated with our studies that there is a significant variation in the biodistribution profiles despite the small structural differences of the chiral substituents (Supplementary Fig. 20). Gd biodistribution in BALB/c mice was measured by ICP-MS at 5, 15, 30, 60, 180 and 360 min following injection. […] Low levels of Gd(III) are present at 6 h post injection. […] The specific and unusual localisation of [GdL2]^− in the liver makes it a potential hepatobiliary-specific MRI contrast agent.
(§1) Gd concentrations were determined using an Agilent 8800-QQQ ICP-MS system. All samples were diluted with 0.1% Triton X-100 in 5% nitric acid. Lutetium internal standard was steadily introduced to the ICP-MS from an external source during the analysis. A linear calibration curve for each metal ranging from 0.1 ppb to 200 ppb was generated daily for the quantification.
Complexes [GdL1]^−, [GdL2]^− and [GdL5]^− were prepared by dissolving in saline solution, while [GdDOTA]^− (Dotarem) was diluted in saline solution. Eight-week-old male BALB/c mice (purchased from BioLASCO, Taiwan) each weighing approximately 25 g were administered with a single dose of 0.025 mmol/kg compound ([GdL1]^−, [GdL2]^−, [GdDOTA]^− and [GdL5]^−; 3 mice per compound per time point) in a 100 μl volume via lateral tail vein injection. The mice were then euthanized, and their blood collected by cardiac puncture at each time point (5, 15, 30, 60, 180 or 360 min post injection). A control group of 4 mice was treated with saline and killed at time point 0. The liver, lung, heart, kidneys, spleen and brain were removed from the animals and weighed. Gd content in tissue and blood samples was quantified via ICP-MS analysis. All experiments were performed in accordance with the NIH Guide for the Care and Use of Laboratory Animals and approved by the Institutional Animal Care and Use Committee of Massachusetts General Hospital or by the Department of Health of the Hong Kong Government and the Animal Subjects Ethics Sub-Committee of Hong Kong Polytechnic University.

[4] = In vivo dynamic T1-weighted MR imaging at 4.7T; set-up: species or system C57/Bl6 mice; details: 0.1 mmol per kg i.v., 4.7 tesla, n = 1
Method: Dynamic T1-weighted MR imaging at 4.7 tesla was performed with C57/Bl6 mice before, during, and after 0.1 mmol per kg injection of each compound (Fig. 7).
(§2) Imaging was performed at 4.7T using a small-bore animal scanner (Bruker Biospec). Pilot dynamic MRI studies were performed with [GdL1]^−, [GdL2A]^−, [GdL2B]^− and [GdL5]^−; n = 1 per compound. Six to eight weeks male C57/Bl6 mice were anaesthetised with isoflurane (1%–2%) and placed in a specially designed cradle with body temperature maintained at 37 °C. The tail vein was catherised for intravenous delivery of the contrast agent while the animal was positioned in the scanner. A pneumatic pillow was placed on the mouse to enable respiratory monitoring (SA Instruments), and the animal’s body temperature was maintained with warm air. The imaging protocol utilised a three-dimensional fast low angle shot (3D FLASH) with a […] flip angle, 9.00 ms repetition rate, 2.39 ms echo time, 4.8 cm × 2.4 cm × 2.4 cm field of view with a 0.3 mm isotropic resolution. Images were acquired with either 2 or 8 averages giving an acquisition time of 2 min or 8 min, respectively. Baseline images were acquired with both 2 and 8 averages, then the Gd complex (0.1 mmol per kg) was injected intravenously and the sequence with 2 averages was repeated for a period of 10 min to monitor blood clearance. At 10, 30, 45, 60, 75 and 90 min after probe injection, the sequence with 8 averages was repeated to monitor the clearance of contrast from the liver and kidneys. After imaging was performed, the mouse was removed from the scanner and euthanized at 2 h post injection and the tissues were harvested for Gd quantification by ICP-MS.

[5] = Ex vivo biodistribution 2 h post injection after MRI study (ICP-MS); type: in vivo, C57/Bl6 mice; details: 0.1 mmol per kg i.v.
Method: as §1, §2

[6] = 17O NMR water exchange (residence time of water co-ligand); type: physicochemical; details: 17O NMR at 11.7T; for τM^310K, mean residence time of the water co-ligand at 310 K: q = 1 assumed
Method: (§3) Relaxivity measurements were performed on a Bruker mq60 Minispec at 1.41T and 37 °C. Longitudinal (T1) relaxation times were measured using an inversion recovery experiment with 10 inversion times of duration ranging between 0.05 × T1 and 5 × T1. Transverse (T2) relaxation times were measured using a CPMG pulse sequence. Relaxivity (r1, r2) was determined from the slope of a plot of 1/T1,2 vs [Gd] for at least 4 concentrations of Gd(III) (data shown in Supplementary Figs. 93–110). The T2 relaxation times of ^17O at 11.7T were estimated from the full-width at half-height of the H2^17O resonance at temperatures ranging from 278 to 368K. Reduced relaxation rates (1/T2r) were calculated by taking the difference of 1/T2 measured in the presence and absence of Gd(III) and dividing by the mole fraction of coordinated water molecules, assuming q = 1. […] However, at the high magnetic field used, and because of the very-fast water exchange rates observed, there was negligible contribution of T1e, and the data were refit to a two-parameter model using the water exchange rate at 310K (τM) and enthalpy of activation for water exchange (ΔH^‡) as adjustable parameters. The Gd-O hyperfine coupling constant, A/ħ, was assumed to be -3.8 × 10^6 rad s^−1 [57], [58]. Samples were prepared in neat H2O adjusted and enriched with a small amount of H2^17O.

[7] = Relaxivity measurements at 1.41T and 37 °C; type: physicochemical
Method: as §3

[8] = Stability of Eu complexes on heating, at low pD and with Zn2+ (1H NMR); type: physicochemical
[9] = Kinetic stability of Gd complexes monitored by RP-HPLC (acid, base, DTPA, DOTA, ZnCl2); type: physicochemical
Source text: The kinetic stability of GBCAs, which reflects the dissociation of the Gd ions from its chelate is used to predict the stability in vivo[10]. The proton-assisted dissociation and direct attack of the endogenous ions are regarded as two main pathways that induced the dissociation of the chelates. The inertness of our Gd(III) complexes was maintained up to 7 days after addition of 1000 equivalents of a competitive ligand, DTPA (Supplementary Fig. 7 & 8). […] The harshest condition tried was setting the complexes of [GdL2A]^−, [GdL2B]^− and [GdDOTA]^− in 1N HCl (Fig. 5, Supplementary Figs. 13 - 15).
Fig. […] Error bars for [GdL2A]^- and [GdL2B]^- refer to the standard error of mean (S.E.M.), statistical data fitting analysis (n = 3; s.e.m.)

## O=C([O-])CN1CCN(CC(=O)[O-])CCN(CC(=O)[O-])CCN(CC(=O)[O-])CC1.[Yb+3] [[YbDOTA]^−, reference compound]
[1]
  decomplexation: decomplexed very fast

## CC[C@H]1CN(CC(=O)O)[C@@H](CC)CN(CC(=O)[O-])[C@@H](CC)CN(CC(=O)O)[C@@H](CC)CN1CC(=O)[O-].[64Cu+2] [^64CuL2]
[2]; 1 h of incubation
  decrease of radiochemical purity: less than 0.3%
[2]; 24 h of incubation
  decrease of radiochemical purity: < 6.3%

## C[C@H]1CN(CC(=O)[O-])[C@@H](C)CN(CC(=O)[O-])[C@@H](C)CN(CC(=O)[O-])[C@@H](C)CN1CC(=O)[O-].[Gd+3] [[GdL1]^−]
[3]
  Gd biodistribution / elimination profile: near equal renal and hepatic clearance
[4]
  MR enhancement of liver and gall bladder: some enhancement of the liver and gall bladder
[5]
  Gd concentration in blood: 1.04 nmol Gd per gram tissue
  Gd concentration in gall bladder: 139.87 nmol Gd per gram tissue
  Gd concentration in heart: 1.68 nmol Gd per gram tissue
  Gd concentration in intestines: 7.75 nmol Gd per gram tissue
  Gd concentration in kidney: 16.71 nmol Gd per gram tissue
  Gd concentration in liver: 1.64 nmol Gd per gram tissue
  Gd concentration in lung: 1.81 nmol Gd per gram tissue
  Gd concentration in muscle: 4.29 nmol Gd per gram tissue
  Gd concentration in spleen: 6.63 nmol Gd per gram tissue
  Gd concentration in stomach: 11.35 nmol Gd per gram tissue
  Gd concentration in tail: 4.57 nmol Gd per gram tissue
[6]
  ΔH^‡, enthalpy change of activation of water exchange: 3.82 ± 0.335 kcal/mol
  τM^310K, mean residence time of the water co-ligand at 310 K: 13 ± 0.4 ns
[7]; 4.5% w/v HSA (1.4T)
  r1 relaxivity: 4.5 mM⁻¹ s⁻¹
[7]; Human Plasma (1.4T)
  r1 relaxivity: 4.6 mM⁻¹ s⁻¹
[7]; Water (1.4T)
  r1 relaxivity: 4.1 mM⁻¹ s⁻¹

## CC[C@H]1CN(CC(=O)[O-])[C@@H](CC)CN(CC(=O)[O-])[C@@H](CC)CN(CC(=O)[O-])[C@@H](CC)CN1CC(=O)[O-].[Eu+3] [[EuL2A]^−]
[8]; 1 equivalent of Zn^2+
  stability with Zn2+: nor did the presence of 1 equivalent of Zn^2+ caused any instability
[8]; 90 °C for 3 days, pD 7.0 ([EuL2A]) and 6.0 ([EuL2B])
  inertness upon heating: extreme inertness
[8]; heating for 3 days at pD 1.0
  racemization upon heating: no signs of racemization

## NCCCC[C@H]1CN(CC(=O)[O-])[C@@H](CCCCN)CN(CC(=O)[O-])[C@@H](CCCCN)CN(CC(=O)[O-])[C@@H](CCCCN)CN1CC(=O)[O-].[Gd+3] [[GdL5]^−]
[3]
  Gd biodistribution / elimination profile: mainly in the kidney and showed no tendency of clearance after 6 h
[4]
  MR enhancement of liver and gall bladder: very little enhancement in the liver
  MR signal in the kidneys over time / at 60 min post injection: renal cortex remained strongly enhanced
[5]
  Gd concentration in blood: 0.80 nmol Gd per gram tissue
  Gd concentration in gall bladder: 60.17 nmol Gd per gram tissue
  Gd concentration in heart: 2.18 nmol Gd per gram tissue
  Gd concentration in intestines: 2.68 nmol Gd per gram tissue
  Gd concentration in kidney: over 90 nmol Gd per gram tissue
  Gd concentration in liver: 2.01 nmol Gd per gram tissue
  Gd concentration in lung: 1.49 nmol Gd per gram tissue
  Gd concentration in muscle: 2.97 nmol Gd per gram tissue
  Gd concentration in spleen: 4.43 nmol Gd per gram tissue
  Gd concentration in stomach: 1.11 nmol Gd per gram tissue
  Gd concentration in tail: 2.28 nmol Gd per gram tissue
[5]; listed as GdL5
  Gd concentration in kidney: 93.23 nmol Gd per gram tissue
[6]
  ΔH^‡, enthalpy change of activation of water exchange: 4.3 ± 0.598 kcal/mol
  τM^310K, mean residence time of the water co-ligand at 310 K: 16 ± 0.8 ns
[7]; 4.5% w/v HSA (1.4T)
  r1 relaxivity: 5.1 mM⁻¹ s⁻¹
[7]; Human Plasma (1.4T)
  r1 relaxivity: 5.1 mM⁻¹ s⁻¹
[7]; Water (1.4T)
  r1 relaxivity: 4.1 mM⁻¹ s⁻¹

## CC[C@H]1CN(CC(=O)[O-])[C@@H](CC)CN(CC(=O)[O-])[C@@H](CC)CN(CC(=O)[O-])[C@@H](CC)CN1CC(=O)[O-].[Yb+3] [[YbL2]^−]
[1]
  decomplexation: no obvious decomplexation

## CC[C@H]1CN(CC(=O)[O-])[C@@H](CC)CN(CC(=O)[O-])[C@@H](CC)CN(CC(=O)[O-])[C@@H](CC)CN1CC(=O)[O-].[Gd+3] [[GdL2A]^−]
[4]
  MR enhancement of liver and gall bladder: very similar behaviour to [GdL2B]^−
[5]
  Gd concentration in gall bladder: 854 nmol Gd per gram tissue
[5]; listed as GdL2A
  Gd concentration in blood: 0.49 nmol Gd per gram tissue
  Gd concentration in gall bladder: 854.21 nmol Gd per gram tissue
  Gd concentration in heart: 1.82 nmol Gd per gram tissue
  Gd concentration in intestines: 0.05 nmol Gd per gram tissue
  Gd concentration in kidney: 20.92 nmol Gd per gram tissue
  Gd concentration in liver: 10.47 nmol Gd per gram tissue
  Gd concentration in lung: 3.61 nmol Gd per gram tissue
  Gd concentration in muscle: 5.18 nmol Gd per gram tissue
  Gd concentration in spleen: 4.72 nmol Gd per gram tissue
  Gd concentration in stomach: 3.14 nmol Gd per gram tissue
  Gd concentration in tail: 2.13 nmol Gd per gram tissue
[6]
  ΔH^‡, enthalpy change of activation of water exchange: 10.3 ± 0.478 kcal/mol
  τM^310K, mean residence time of the water co-ligand at 310 K: 6.6 ± 0.4 ns
[7]; 4.5% w/v HSA (1.4T)
  r1 relaxivity: 4.7 mM⁻¹ s⁻¹
[7]; Human Plasma (1.4T)
  r1 relaxivity: 4.7 mM⁻¹ s⁻¹
[7]; Water (1.4T)
  r1 relaxivity: 4.2 mM⁻¹ s⁻¹
[9]; 0.1N NaOH, over 10 days
  decomplexation: negligible decomplexation
[9]; 1N HCl, room temperature, after 487 h
  decomplexation: almost no decomplexation
[9]; 1N HNO3, over 10 days
  decomplexation: negligible decomplexation
[9]; 100 equivalents of zinc chloride at 50 °C, ~100 h
  decomplexation: no obvious decomplexation
[9]; one equivalent of DOTA ligand in 1N HCl
  stability and interconversion: no interconversion was observed
